Experimental data from patent publication US4659696A, “Pharmaceutical composition and its nasal or vaginal use” (Takeda Chemical Industries, Ltd., priority 1982, dated 1987).

How the values were obtained:
Assay type in all cases: in vivo, rat
plasma glucose level [1] = experiment: Plasma glucose level after rectal administration of insulin solution to rats; details: insulin 50 IU/kg, before administration=100
plasma glucose level [2] = experiment: Plasma glucose level after nasal administration of insulin to rats; details: before administration=100
Procedure: Male SD strain rats (body weights 250 g, approx.) fasted for 16 hours are used in groups of at least 3 animals. Each animal is anesthetized with pentobarbital and administered nasal medication in accordance with the method described in International Journal of Pharmaceutics 7, 317 (1981). Then, 0.1 ml/kg of insulin solution is directly administered into the nasal cavity with a micropipette via the nostril.
The insulin solution used is a mixed solution of 10 U or 20 U of porcine insulin (about 0.2 mg or […]) and 0 mg to 10 mg [which correspond to 0 to 10%] of α-, β- or γ-cyclodextrin in 0.1 ml of an isotonic buffer solution (pH 7.4).
As control, insulin is intravenously administered and plasma glucose levels are determined in the manner as above.

plasma glucose level [3] = experiment: Plasma glucose level after rectal insulin suppository in rats; details: rectal Witepsol W-35 suppository, insulin 50 IU/kg, before administration=100
From the text: The results, which are shown in Table 11, indicate that the addition of α- or β-cyclodextrin results in an increased absorption of insulin.

plasma glucose level [4] = experiment: Plasma glucose level after vaginal administration of insulin to rats; details: for Plasma glucose level (%): just before administration=100; for reduction in the area under the plasma glucose level-time curve within 6 hours after administration: mean±standard error

## insulin: porcine insulin
Plasma glucose level [1]; 5% (w/v) α-cyclodextrin, 0.5 hr.
  Change (%) in plasma glucose level: 92.9%
Plasma glucose level [1]; 5% (w/v) α-cyclodextrin, 1 hr.
  Change (%) in plasma glucose level: 39.1%
Plasma glucose level [1]; 5% (w/v) α-cyclodextrin, 1.5 hr.
  Change (%) in plasma glucose level: 39.6%
Plasma glucose level [1]; 5% (w/v) α-cyclodextrin, 2 hr.
  Change (%) in plasma glucose level: 69.6%
Plasma glucose level [1]; 5% (w/v) β-cyclodextrin, 0.5 hr.
  Change (%) in plasma glucose level: 94.3%
Plasma glucose level [1]; 5% (w/v) β-cyclodextrin, 1 hr.
  Change (%) in plasma glucose level: 70.1%
Plasma glucose level [1]; 5% (w/v) β-cyclodextrin, 1.5 hr.
  Change (%) in plasma glucose level: 76.3%
Plasma glucose level [1]; 5% (w/v) β-cyclodextrin, 2 hr.
  Change (%) in plasma glucose level: 90.1%
Plasma glucose level [1]; 5% (w/v) γ-cyclodextrin, 0.5 hr.
  Change (%) in plasma glucose level: 94.8%
Plasma glucose level [1]; 5% (w/v) γ-cyclodextrin, 1 hr.
  Change (%) in plasma glucose level: 79.0%
Plasma glucose level [1]; 5% (w/v) γ-cyclodextrin, 1.5 hr.
  Change (%) in plasma glucose level: 81.3%
Plasma glucose level [1]; 5% (w/v) γ-cyclodextrin, 2 hr.
  Change (%) in plasma glucose level: 93.0%
Plasma glucose level [1]; no cyclodextrin, 0.5 hr.
  Change (%) in plasma glucose level: 102.2%
Plasma glucose level [1]; no cyclodextrin, 1 hr.
  Change (%) in plasma glucose level: 86.0%
Plasma glucose level [1]; no cyclodextrin, 1.5 hr.
  Change (%) in plasma glucose level: 95.2%
Plasma glucose level [1]; no cyclodextrin, 2 hr.
  Change (%) in plasma glucose level: 121.9%
Plasma glucose level [2]; intranasal, insulin 10 U/Kg, no cyclodextrin, 1 hr.
  Change (%) in plasma glucose level: 93.7%
Plasma glucose level [2]; intranasal, insulin 10 U/Kg, no cyclodextrin, 2 hr.
  Change (%) in plasma glucose level: 99.3%
Plasma glucose level [2]; intranasal, insulin 10 U/Kg, no cyclodextrin, 4 hr.
  Change (%) in plasma glucose level: 103.0%
Plasma glucose level [2]; intranasal, insulin 10 U/Kg, α-cyclodextrin 3%, 1 hr.
  Change (%) in plasma glucose level: 73.5%
Plasma glucose level [2]; intranasal, insulin 10 U/Kg, α-cyclodextrin 3%, 2 hr.
  Change (%) in plasma glucose level: 59.7%
Plasma glucose level [2]; intranasal, insulin 10 U/Kg, α-cyclodextrin 3%, 4 hr.
  Change (%) in plasma glucose level: 62.9%
Plasma glucose level [2]; intranasal, insulin 10 U/Kg, α-cyclodextrin 5%, 1 hr.
  Change (%) in plasma glucose level: 59.4%
Plasma glucose level [2]; intranasal, insulin 10 U/Kg, α-cyclodextrin 5%, 2 hr.
  Change (%) in plasma glucose level: 46.8%
Plasma glucose level [2]; intranasal, insulin 10 U/Kg, α-cyclodextrin 5%, 4 hr.
  Change (%) in plasma glucose level: 54.4%
Plasma glucose level [2]; intranasal, insulin 10 U/Kg, α-cyclodextrin 10%, 1 hr.
  Change (%) in plasma glucose level: 33.8%
Plasma glucose level [2]; intranasal, insulin 10 U/Kg, α-cyclodextrin 10%, 2 hr.
  Change (%) in plasma glucose level: 24.8%
Plasma glucose level [2]; intranasal, insulin 10 U/Kg, α-cyclodextrin 10%, 4 hr.
  Change (%) in plasma glucose level: 40.3%
Plasma glucose level [2]; intranasal, insulin 10 U/Kg, β-cyclodextrin 10% (suspension), 1 hr.
  Change (%) in plasma glucose level: 62.5%
Plasma glucose level [2]; intranasal, insulin 10 U/Kg, β-cyclodextrin 10% (suspension), 2 hr.
  Change (%) in plasma glucose level: 48.6%
Plasma glucose level [2]; intranasal, insulin 10 U/Kg, β-cyclodextrin 10% (suspension), 4 hr.
  Change (%) in plasma glucose level: 49.7%
Plasma glucose level [2]; intranasal, insulin 10 U/Kg, γ-cyclodextrin 10%, 1 hr.
  Change (%) in plasma glucose level: 80.0%
Plasma glucose level [2]; intranasal, insulin 10 U/Kg, γ-cyclodextrin 10%, 2 hr.
  Change (%) in plasma glucose level: 81.0%
Plasma glucose level [2]; intranasal, insulin 10 U/Kg, γ-cyclodextrin 10%, 4 hr.
  Change (%) in plasma glucose level: 74.2%
Plasma glucose level [2]; intranasal, insulin 20 U/Kg, no cyclodextrin, 1 hr.
  Change (%) in plasma glucose level: 92.4%
Plasma glucose level [2]; intranasal, insulin 20 U/Kg, no cyclodextrin, 2 hr.
  Change (%) in plasma glucose level: 90.6%
Plasma glucose level [2]; intranasal, insulin 20 U/Kg, no cyclodextrin, 4 hr.
  Change (%) in plasma glucose level: 99.9%
Plasma glucose level [2]; intranasal, insulin 20 U/Kg, α-cyclodextrin 5%, 1 hr.
  Change (%) in plasma glucose level: 64.3%
Plasma glucose level [2]; intranasal, insulin 20 U/Kg, α-cyclodextrin 5%, 2 hr.
  Change (%) in plasma glucose level: 38.4%
Plasma glucose level [2]; intranasal, insulin 20 U/Kg, α-cyclodextrin 5%, 4 hr.
  Change (%) in plasma glucose level: 47.9%
Plasma glucose level [2]; intravenous, insulin 5 U/Kg, no cyclodextrin, 1 hr.
  Change (%) in plasma glucose level: 29.6%
Plasma glucose level [2]; intravenous, insulin 5 U/Kg, no cyclodextrin, 2 hr.
  Change (%) in plasma glucose level: 31.6%
Plasma glucose level [2]; intravenous, insulin 5 U/Kg, no cyclodextrin, 4 hr.
  Change (%) in plasma glucose level: 41.7%
Plasma glucose level [3]; 5% (w/w) α-cyclodextrin, 0.5 hr.
  Change (%) in plasma glucose level: 93.1%
Plasma glucose level [3]; 5% (w/w) α-cyclodextrin, 1 hr.
  Change (%) in plasma glucose level: 61.1%
Plasma glucose level [3]; 5% (w/w) α-cyclodextrin, 1.5 hr.
  Change (%) in plasma glucose level: 63.5%
Plasma glucose level [3]; 5% (w/w) α-cyclodextrin, 2 hr.
  Change (%) in plasma glucose level: 86.1%
Plasma glucose level [3]; 5% (w/w) α-cyclodextrin, 3 hr.
  Change (%) in plasma glucose level: 93.4%
Plasma glucose level [3]; 5% (w/w) β-cyclodextrin, 0.5 hr.
  Change (%) in plasma glucose level: 87.1%
Plasma glucose level [3]; 5% (w/w) β-cyclodextrin, 1 hr.
  Change (%) in plasma glucose level: 81.5%
Plasma glucose level [3]; 5% (w/w) β-cyclodextrin, 1.5 hr.
  Change (%) in plasma glucose level: 80.1%
Plasma glucose level [3]; 5% (w/w) β-cyclodextrin, 2 hr.
  Change (%) in plasma glucose level: 92.5%
Plasma glucose level [3]; 5% (w/w) β-cyclodextrin, 3 hr.
  Change (%) in plasma glucose level: 100.4%
Plasma glucose level [3]; no cyclodextrin, 0.5 hr.
  Change (%) in plasma glucose level: 98.1%
Plasma glucose level [3]; no cyclodextrin, 1 hr.
  Change (%) in plasma glucose level: 94.1%
Plasma glucose level [3]; no cyclodextrin, 1.5 hr.
  Change (%) in plasma glucose level: 97.4%
Plasma glucose level [3]; no cyclodextrin, 2 hr.
  Change (%) in plasma glucose level: 98.1%
Plasma glucose level [3]; no cyclodextrin, 3 hr.
  Change (%) in plasma glucose level: 102.5%
Plasma glucose level [4]; intravaginal (5% α-CD), insulin 20 Unit/kg, 0.5 hour
  Plasma glucose level (%): 66.5%
Plasma glucose level [4]; intravaginal (5% α-CD), insulin 20 Unit/kg, 1 hour
  Plasma glucose level (%): 52.7%
Plasma glucose level [4]; intravaginal (5% α-CD), insulin 20 Unit/kg, 2 hour
  Plasma glucose level (%): 40.0%
Plasma glucose level [4]; intravaginal (5% α-CD), insulin 20 Unit/kg, 3 hour
  Plasma glucose level (%): 33.7%
Plasma glucose level [4]; intravaginal (5% α-CD), insulin 20 Unit/kg, 4 hour
  Plasma glucose level (%): 31.4%
Plasma glucose level [4]; intravaginal (5% α-CD), insulin 20 Unit/kg, 6 hour
  Plasma glucose level (%): 41.5%
Plasma glucose level [4]; intravaginal (physiological saline), insulin 20 Unit/kg, no cyclodextrin, 0.5 hour
  Plasma glucose level (%): 80.7%
Plasma glucose level [4]; intravaginal (physiological saline), insulin 20 Unit/kg, no cyclodextrin, 1 hour
  Plasma glucose level (%): 75.8%
Plasma glucose level [4]; intravaginal (physiological saline), insulin 20 Unit/kg, no cyclodextrin, 2 hour
  Plasma glucose level (%): 77.2%
Plasma glucose level [4]; intravaginal (physiological saline), insulin 20 Unit/kg, no cyclodextrin, 3 hour
  Plasma glucose level (%): 74.2%
Plasma glucose level [4]; intravaginal (physiological saline), insulin 20 Unit/kg, no cyclodextrin, 4 hour
  Plasma glucose level (%): 66.9%
Plasma glucose level [4]; intravaginal (physiological saline), insulin 20 Unit/kg, no cyclodextrin, 6 hour
  Plasma glucose level (%): 67.8%
Plasma glucose level [4]; intravaginal, insulin 20 units/kg, 5% α-cyclodextrin
  pharmacological effect versus control vaginal administration group: almost doubled
Plasma glucose level [4]; intravaginal, insulin 20 units/kg, 5% α-cyclodextrin (invention group)
  reduction in the area under the plasma glucose level-time curve within 6 hours after administration: 339.9±11.2 %×hour
Plasma glucose level [4]; intravaginal, insulin 20 units/kg, no cyclodextrin (control group)
  reduction in the area under the plasma glucose level-time curve within 6 hours after administration: 158.2±29.6 %×hour
Plasma glucose level [4]; subcutaneous, insulin 5 Unit/kg, no cyclodextrin, 0.5 hour
  Plasma glucose level (%): 67.0%
Plasma glucose level [4]; subcutaneous, insulin 5 Unit/kg, no cyclodextrin, 1 hour
  Plasma glucose level (%): 54.7%
Plasma glucose level [4]; subcutaneous, insulin 5 Unit/kg, no cyclodextrin, 2 hour
  Plasma glucose level (%): 42.2%
Plasma glucose level [4]; subcutaneous, insulin 5 Unit/kg, no cyclodextrin, 3 hour
  Plasma glucose level (%): 35.1%
Plasma glucose level [4]; subcutaneous, insulin 5 Unit/kg, no cyclodextrin, 4 hour
  Plasma glucose level (%): 37.5%
Plasma glucose level [4]; subcutaneous, insulin 5 Unit/kg, no cyclodextrin, 6 hour
  Plasma glucose level (%): 74.1%
